Data taken from US20240279236A1, “COMPOUNDS AND METHODS OF TREATING TUBERCULOSIS” (Fimbrion Therapeutics, Inc., priority 2021, published 2024).

What follows are compounds tested on WT Mtb Erdman strain (assay: Microplate Alamar Blue Assay (MABA), Mtb growth inhibition). Details: Middlebrook 7H9 media, 7 days at 37° C. in 5% CO2.
Format: cell-based, Mycobacterium tuberculosis
Compound Cc1cc2c(N[C@@H]3C[C@H]3c3ccc(F)c(F)c3)nc(-c3ccc(=O)[nH]c3)nc2s1 [Example 490, 5-(4-(((1R,2S)-2-(3,4-difluorophenyl)cyclopropyl)amino)-6-methylthieno[2,3-d]pyrimidin-2-yl)pyridin-2(1H)-one] has an IC50 greater than 9100 nM.

Same assay, conditions: Mycobacterium tuberculosis, ERDMAN, 168 h, Middlebrook 7H9 media, 7 days at 37° C. in 5% CO2
Compound Cc1cc2c(NCCCc3ccc(-c4ccc(Cl)cc4)cc3)nc(-c3ccoc3)nc2s1 [Example 434, N-(3-(4′-chloro-[1,1′-biphenyl]-4-yl)propyl)-2-(furan-3-yl)-6-methylthieno[2,3-d]pyrimidin-4-amine] has an IC50 of 10 nM.
In the case of Cc1cc2c(NCCCc3ccc(-c4ccc(Cl)cc4)cc3)nc(Cl)nc2s1 [Example 435, 2-chloro-N-(3-(4′-chloro-[1,1′-biphenyl]-4-yl)propyl)-6-methylthieno[2,3-d]pyrimidin-4-amine], the IC50 is reported as 30 nM.
In the case of Cc1cc2c(NCCCc3ccc(-c4ccc(Cl)cc4)cc3)nc(-c3ccc(F)cc3)nc2s1 [Example 436, N-(3-(4′-chloro-[1,1′-biphenyl]-4-yl)propyl)-2-(4-fluorophenyl)-6-methylthieno[2,3-d]pyrimidin-4-amine], the IC50 is reported as 220 nM.
Compound Cc1cc2c(NCCCc3ccc(-c4ccc(C5CC5)cc4)cc3)nc(Cl)nc2s1 [Example 437, 2-chloro-N-(3-(4′-cyclopropyl-[1,1′-biphenyl]-4-yl)propyl)-6-methylthieno[2,3-d]pyrimidin-4-amine] has an IC50 of 85 nM.
With Cc1cc2c(NCCCc3ccc(-c4ccc(C(F)(F)F)nc4)cc3)nc(Cl)nc2s1 [Example 438, 2-chloro-6-methyl-N-(3-(4-(6-(trifluoromethyl)pyridin-3-yl)phenyl)propyl)thieno[2,3-d]pyrimidin-4-amine] the IC50 was 140 nM.
Cc1cc2c(NCCCc3ccc(-c4ccc(C#N)cc4)cc3)nc(Cl)nc2s1 [Example 439, 4′-(3-((2-chloro-6-methylthieno[2,3-d]pyrimidin-4-yl)amino)propyl)-[1,1′-biphenyl]-4-carbonitrile] was tested, and the IC50 was 93 nM.
For Cc1cc2c(NCCCc3ccc(-c4ccc(OC(F)(F)F)cc4)cc3)nc(-c3cccn3C)nc2s1 [Example 440, 6-methyl-2-(1-methyl-1H-pyrrol-2-yl)-N-(3-(4′-(trifluoromethoxy)-[1,1′-biphenyl]-4-yl)propyl)thieno[2,3-d]pyrimidin-4-amine], the IC50 was 8100 nM.
Cc1cc2c(NCCCc3ccc(-c4ccc(OC(F)(F)F)cc4)cc3)nc(-c3ccn(C)c3)nc2s1 [Example 441, 6-methyl-2-(1-methyl-1H-pyrrol-3-yl)-N-(3-(4′-(trifluoromethoxy)-[1,1′-biphenyl]-4-yl)propyl)thieno[2,3-d]pyrimidin-4-amine] showed an IC50 of 49 nM.
In the case of Cc1cc2c(NCCCc3ccc(-c4ccc(OC(F)(F)F)cc4)cc3)nc(-c3cnc[nH]3)nc2s1 [Example 442, 2-(1H-imidazol-5-yl)-6-methyl-N-(3-(4′-(trifluoromethoxy)-[1,1′-biphenyl]-4-yl)propyl)thieno[2,3-d]pyrimidin-4-amine], the IC50 is reported as 230 nM.
Compound Cc1cc2c(NCCCc3ccc(-c4ccc(OC(F)(F)F)cc4)cc3)nc(-c3cn(C)cn3)nc2s1 [Example 443, 6-methyl-2-(1-methyl-1H-imidazol-4-yl)-N-(3-(4′-(trifluoromethoxy)-[1,1′-biphenyl]-4-yl)propyl)thieno[2,3-d]pyrimidin-4-amine] has an IC50 of 300 nM.
With Cc1cc2c(NCCCc3ccc(-c4ccc(OC(F)(F)F)cc4)cc3)nc(-c3cncn3C)nc2s1 [Example 444, 6-methyl-2-(1-methyl-1H-imidazol-5-yl)-N-(3-(4′-(trifluoromethoxy)-[1,1′-biphenyl]-4-yl)propyl)thieno[2,3-d]pyrimidin-4-amine] the IC50 was 5500 nM.
Cc1nc(NCCCc2ccc(-c3ccc(OC(F)(F)F)cc3)cc2)c2cc(C)sc2n1 [Example 445, 2,6-dimethyl-N-(3-(4′-(trifluoromethoxy)-[1,1′-biphenyl]-4-yl)propyl)thieno[2,3-d]pyrimidin-4-amine] gave an IC50 of 160 nM.
Cc1cc2c(NCCCc3ccc(-c4ccc(OC(F)(F)F)cc4)cc3)nc(-c3ncon3)nc2s1 [Example 446, 6-methyl-2-(1,2,4-oxadiazol-3-yl)-N-(3-(4′-(trifluoromethoxy)-[1,1′-biphenyl]-4-yl)propyl)thieno[2,3-d]pyrimidin-4-amine] was tested, and the IC50 was 96 nM.
Cc1cc2c(NCCCc3ccc(-c4ccc(OC(F)(F)F)cc4)cc3)nc(-c3cnn(C)c3)nc2s1 [Example 447, 6-methyl-2-(1-methyl-1H-pyrazol-4-yl)-N-(3-(4′-(trifluoromethoxy)-[1,1′-biphenyl]-4-yl)propyl)thieno[2,3-d]pyrimidin-4-amine] gave an IC50 of 57 nM.
With CCSc1nc(NCCCc2ccc(-c3ccc(OC(F)(F)F)cc3)cc2)c2cc(C)sc2n1 [Example 448, 2-(ethylthio)-6-methyl-N-(3-(4′-(trifluoromethoxy)-[1,1′-biphenyl]-4-yl)propyl)thieno[2,3-d]pyrimidin-4-amine] the IC50 was 44 nM.
Work on Cc1cc2c(NCCCc3ccc(-c4ccc(OC(F)(F)F)cc4)cc3)nc(-c3c(C)noc3C)nc2s1 [Example 449, 2-(3,5-dimethylisoxazol-4-yl)-6-methyl-N-(3-(4′-(trifluoromethoxy)-[1,1′-biphenyl]-4-yl)propyl)thieno[2,3-d]pyrimidin-4-amine] yielded an IC50 greater than 1000 nM.
Work on Cc1cc2c(NCCCc3ccc(-c4ccc(OC(F)(F)F)cc4)cc3)nc(-c3ccn(C)n3)nc2s1 [Example 450, 6-methyl-2-(1-methyl-1H-pyrazol-3-yl)-N-(3-(4′-(trifluoromethoxy)-[1,1′-biphenyl]-4-yl)propyl)thieno[2,3-d]pyrimidin-4-amine] yielded an IC50 of 490 nM.
With Cc1cc2c(NCCCc3ccc(-c4ccc(OC(F)(F)F)cc4)cc3)nc(-n3ccnc3)nc2s1 [Example 451, 2-(1H-imidazol-1-yl)-6-methyl-N-(3-(4′-(trifluoromethoxy)-[1,1′-biphenyl]-4-yl)propyl)thieno[2,3-d]pyrimidin-4-amine] the IC50 was 1800 nM.
Cc1cc2c(NCCCc3ccc(-c4ccc(OC(F)(F)F)cc4)cc3)nc(C3CC3)nc2s1 [Example 452] was tested, and the IC50 was 76 nM.
With Cc1cc2c(NCCCc3ccc(-c4ccc(OC(F)(F)F)cc4)cc3)nc(C3CCC3)nc2s1 [Example 453, 2-cyclobutyl-6-methyl-N-(3-(4′-(trifluoromethoxy)-[1,1′-biphenyl]-4-yl)propyl)thieno[2,3-d]pyrimidin-4-amine] the IC50 was 58 nM.
For Cc1cc2c(NCCCc3ccc(-c4ccc(OC(F)(F)F)cc4)cc3)nc(-c3cn[nH]c3)nc2s1 [Example 454, 6-methyl-2-(1H-pyrazol-4-yl)-N-(3-(4′-(trifluoromethoxy)-[1,1′-biphenyl]-4-yl)propyl)thieno[2,3-d]pyrimidin-4-amine], the IC50 was greater than 1000 nM.
Cc1cc2c(NCCCc3ccc(-c4ccc(OC(F)(F)F)cc4)cc3)nc(C(C)C)nc2s1 [Example 455, 2-isopropyl-6-methyl-N-(3-(4′-(trifluoromethoxy)-[1,1′-biphenyl]-4-yl)propyl)thieno[2,3-d]pyrimidin-4-amine] gave an IC50 of 56 nM.
In the case of Cc1cc2c(NCCCc3ccc(-c4ccc(OC(F)(F)F)cc4)cc3)nc(-c3ccoc3C)nc2s1 [Example 456, 6-methyl-2-(2-methylfuran-3-yl)-N-(3-(4′-(trifluoromethoxy)-[1,1′-biphenyl]-4-yl)propyl)thieno[2,3-d]pyrimidin-4-amine], the IC50 is reported as greater than 10000 nM.
For Cc1nc2c(NCCCc3ccc(-c4cnc(F)cn4)cc3)nc(-c3ncon3)nc2s1 [Example 457, N-(3-(4-(5-fluoropyrazin-2-yl)phenyl)propyl)-2-methyl-5-(1,2,4-oxadiazol-3-yl)thiazolo[5,4-d]pyrimidin-7-amine], the IC50 was greater than 1000 nM.
In the case of CSc1nc(NCCCc2ccc(-c3ccc(C(F)(F)F)cn3)cc2)c2cc(C)sc2n1 [Example 458, 6-methyl-2-(methylthio)-N-(3-(4-(5-(trifluoromethyl)pyridin-2-yl)phenyl)propyl)thieno[2,3-d]pyrimidin-4-amine], the IC50 is reported as 14 nM.
Compound Cc1cc2c(NCCCc3ccc(-c4ccc(OC(F)(F)F)cn4)cc3)nc(-c3ccon3)nc2s1 [Example 459, 2-(isoxazol-3-yl)-6-methyl-N-(3-(4-(5-(trifluoromethoxy)pyridin-2-yl)phenyl)propyl)thieno[2,3-d]pyrimidin-4-amine] has an IC50 of 43 nM.
Cc1nc2c(NCCCc3ccc(-c4cnc(F)cn4)cc3)nc(-c3ccon3)nc2s1 [Example 465, N-(3-[4-(5-fluoropyrazin-2-yl)phenyl]propyl)-2-methyl-5-(1,2-oxazol-3-yl)-[1,3]thiazolo[5,4-d]pyrimidin-7-amine] gave an IC50 of 180 nM.
FC(F)(F)Oc1ccc(-c2ccc(CCCNc3nc(Cl)nc4sccc34)cc2)cc1 [Example 467, 2-chloro-N-(3-(4′-(trifluoromethoxy)-[1,1′-biphenyl]-4-yl)propyl)thieno[2,3-d]pyrimidin-4-amine] was tested, and the IC50 was 200 nM.
For FC(F)(F)Oc1ccc(-c2ccc(CCCNc3nc(Cl)nc4scnc34)cc2)cc1 [Example 468, 5-chloro-N-(3-(4′-(trifluoromethoxy)-[1,1′-biphenyl]-4-yl)propyl)thiazolo[5,4-d]pyrimidin-7-amine], the IC50 was 690 nM.
In the case of Cc1cc2c(NCCCc3ccc(-c4cnc(F)cn4)cc3)nc(Cl)nc2s1 [Example 469, 2-chloro-N-(3-(4-(5-fluoropyrazin-2-yl)phenyl)propyl)-6-methylthieno[2,3-d]pyrimidin-4-amine], the IC50 is reported as 170 nM.
With Cc1nc2c(NCCCc3ccc(-c4cnc(F)cn4)cc3)nc(Cl)nc2s1 [Example 470, 5-chloro-N-(3-(4-(5-fluoropyrazin-2-yl)phenyl)propyl)-2-methylthiazolo[5,4-d]pyrimidin-7-amine] the IC50 was 330 nM.
Cc1cc2c(N[C@@H]3C[C@H]3c3ccc(F)c(F)c3)nc(-c3ccc(=O)[nH]c3)nc2s1 [Example 490, 5-(4-(((1R,2S)-2-(3,4-difluorophenyl)cyclopropyl)amino)-6-methylthieno[2,3-d]pyrimidin-2-yl)pyridin-2(1H)-one] showed an IC50 of 4700 nM.
In the case of Cc1cc2c(N[C@@H]3C[C@H]3c3ccc(F)c(F)c3)nc(-c3ccnc(N(C)C)c3)nc2s1 [Example 491, N-((1R,2S)-2-(3,4-difluorophenyl)cyclopropyl)-2-(2-(dimethylamino)pyridin-4-yl)-6-methylthieno[2,3-d]pyrimidin-4-amine], the IC50 is reported as 4400 nM.
Compound Cc1cc2c(N[C@@H]3C[C@H]3c3ccc(F)c(F)c3)nc(-c3ccc(S(C)(=O)=O)cc3)nc2s1 [Example 492, N-((1R,2S)-2-(3,4-difluorophenyl)cyclopropyl)-6-methyl-2-(4-(methylsulfonyl)phenyl)thieno[2,3-d]pyrimidin-4-amine] has an IC50 greater than 10000 nM.
